Data as given in patent publication US9814699B2, “Chemical compounds” (Janssen Pharmaceuticals, Inc., priority 2009, dated 2017).

Legend:
[1] = test system: HCV genotype 1a subgenomic replicon; assay: HCV replicon assay, genotype 1a subgenomic replicon (luciferase); assay type: cell-based; details: Hepatitis C virus; genotype 1a replicon stable cell line, luciferase activity measured 48 hours later; read-out: Replicon 1A pEC50 (converted)
Protocol: (§1) Protocol for Testing and Data Analysis of Compounds in the HCV Replicon Assay
(§2) Compounds were assayed for activity against HCV using the genotype 1a and 1b subgenomic replicon model systems. Stable cell lines bearing the genotype 1a and 1b replicons were used for screening of compounds. Both replicons are bicistronic and contain the firefly luciferase gene. The ET cell line is stably transfected with RNA transcripts harboring a I389luc-ubi-neo/NS3-3′/ET replicon with firefly luciferase-ubiquitin-neomycin phosphotransferase fusion protein and EMCV-IRES driven NS3-5B polyprotein containing the cell culture adaptive mutations (E1202G; T1280I; K1846T) (Krieger at al, 2001 and unpublished). The genotype 1a replicon is a stable cell line licensed from Apath LLC, modified to contain the firefly luciferase gene. The cells were grown in DMEM, supplemented with 10% fetal calf serum, 2 mM Glutamine, Penicillin (100 IU/mL)/Streptomycin (100 μg/mL), 1× nonessential amino acids, and 250-500 μg/mL G418 (“Geneticin”). They were all available through Life Technologies (Bethesda, Md.). The cells were plated at 5×10^3 cells/well in 384 well plates containing compounds. The final concentration of compounds ranged between 0.03 pM to 50 μm and the final DMSO concentration of 0.5-1%.
(§3) Luciferase activity was measured 48 hours later by adding a Steady glo reagent (Promega, Madison, Wis.). Percent inhibition of replication data was plotted relative to no compound control. Under the same condition, cytotoxicity of the compounds was determined using cell titer glo (Promega, Madison, Ws). EC50s were determined from an 11 point dose response curve using 3-4-fold serial dilution for each compound, which spans a concentration range >1000 fold. The level of inhibition for each compound was determined with Activity Base or with BioAssay plus the Excel XC50 module. Percent inhibition was determined with the following equation where the cross-talk corrected value is the value from the test well, the compound positive control mean is the average value of the wells with no compound present, and the DMSO negative control mean is the average value of the wells with DMSO but no cells present.
(§4) [formula] These normalized values are exported to EC50 where they are plotted against the molar compound concentrations using the standard four parameter logistic equation: […]

[2] = test system: HCV genotype 1b subgenomic replicon; assay: HCV replicon assay, genotype 1b subgenomic replicon (ET cell line, luciferase); assay type: cell-based; details: Hepatitis C virus; genotype 1b replicon ET cell line, luciferase activity measured 48 hours later; read-out: Replicon 1B pEC50 (converted)
Protocol: as §1, §2, §3, §4

Structure (SMILES) | EC50 [1] | EC50 [2]
COC(=O)N[C@H](C(=O)N1CC2(CCN(C(C)=O)CC2)CC1c1ncc(-c2ccc(-c3ccc(-c4cnc([C@@H]5CCCN5C(=O)[C@@H](NC(=O)OC)C(C)C)[nH]4)cc3)cc2)[nH]1)C(C)C (stereo partly drawn) [Example 21, methyl [(1S)-1-({(2S)-2-[4-(4′-{2-[8-acetyl-2-((2S)-3-methyl-2-{[(methyloxy)carbonyl]amino}butanoyl)-2,8-diazaspiro[4.5]dec-3-yl]-1H-imidazol-4-yl}-4-biphenylyl)-1H-imidazol-2-yl]-1-pyrrolidinyl}carbonyl)-2-methylpropyl]carbamate] | 10000 pM | 200 pM
COC(=O)N[C@H](C(=O)N1CC2(CC1c1ncc(-c3ccc(-c4ccc(-c5cnc([C@@H]6CCCN6C(=O)[C@@H](NC(=O)OC)C(C)C)[nH]5)cc4)cc3)[nH]1)CN(S(C)(=O)=O)C2)C(C)C (stereo partly drawn) [Example 28, methyl [(1S)-2-methyl-1-({(2S)-2-[4-(4′-{2-[6-((2S)-3-methyl-2-{[(methyloxy)carbonyl]amino}butanoyl)-2-(methylsulfonyl)-2,6-diazaspiro[3.4]oct-7-yl]-1H-imidazol-4-yl}-4-biphenylyl)-1H-imidazol-2-yl]-1-pyrrolidinyl}carbonyl)propyl]carbamate] | 1580 pM | 50.1 pM
COC(=O)N[C@H](C(=O)N1CCC[C@H]1c1ncc(-c2ccc(-c3ccc(-c4cnc([C@@H]5CC6(CN5C(=O)[C@@H](NC(=O)OC)C(C)C)OCC(C)(C)CO6)[nH]4)cc3)cc2)[nH]1)C(C)C [Example 7, methyl [(1S)-1-({(2S)-2-[4-(4′-{2-[(3S)-8,8-dimethyl-2-((2S)-3-methyl-2-{[(methyloxy)carbonyl]amino}butanoyl)-6,10-dioxa-2-azaspiro[4.5]dec-3-yl]-1H-imidazol-4-yl}-4-biphenylyl)-1H-imidazol-2-yl]-1-pyrrolidinyl}carbonyl)-2-methylpropyl]carbamate] | 794 pM | 2.51 pM
COC(=O)N[C@H](C(=O)N1CCC[C@H]1c1ncc(-c2ccc(-c3ccc(-c4cnc([C@@H]5CC6(CN5C(=O)[C@@H](NC(=O)OC)C(C)C)CC(F)(F)C6)[nH]4)cc3)cc2)[nH]1)C(C)C [Example 29, methyl [(1S)-1-({(2S)-2-[4-(4′-{2-[(7S)-2,2-difluoro-6-((2S)-3-methyl-2-{[(methyloxy)carbonyl]amino}butanoyl)-6-azaspiro[3.4]oct-7-yl]-1H-imidazol-4-yl}-4-biphenylyl)-1H-imidazol-2-yl]-1-pyrrolidinyl}carbonyl)-2-methylpropyl]carbamate] | 100 pM | 3.16 pM
COC(=O)N[C@H](C(=O)N1CC2(CC1c1ncc(-c3ccc(-c4ccc(-c5cnc([C@@H]6CCCN6C(=O)[C@@H](NC(=O)OC)C(C)C)[nH]5)cc4)cc3)[nH]1)CN(C(=O)OC(C)(C)C)C2)C(C)C (stereo partly drawn) [Example 23, 1,1-dimethylethyl 6-{N-[(methyloxy)carbonyl]-L-valyl}-7-(4-{4′-[2-((2S)-1-{N-[(methyloxy)carbonyl]-L-valyl}-2-pyrrolidinyl)-1H-imidazol-4-yl]-4-biphenylyl}-1H-imidazol-2-yl)-2,6-diazaspiro[3.4]octane-2-carboxylate] | 1260 pM | 10 pM
COC(=O)N[C@H](C(=O)N1CC2(CCOCC2)CC1c1ncc(-c2ccc(-c3ccc(-c4cnc([C@@H]5CCCN5C(=O)[C@@H](NC(=O)OC)C(C)C)[nH]4)cc3)cc2)[nH]1)C(C)C (stereo partly drawn) [Example 15, methyl [(1S)-2-methyl-1-({(2S)-2-[4-(4′-{2-[2-((2S)-3-methyl-2-{[(methyloxy)carbonyl]amino}butanoyl)-8-oxa-2-azaspiro[4.5]dec-3-yl]-1H-imidazol-4-yl}-4-biphenylyl)-1H-imidazol-2-yl]-1-pyrrolidinyl}carbonyl)propyl]carbamate] | 63.1 pM | 15.8 pM
COC(=O)N[C@H](C(=O)N1CCC[C@H]1c1ncc(-c2ccc(-c3ccc(-c4cnc([C@@H]5CC6(CN5C(=O)[C@@H](NC(=O)OC)C(C)C)OCCO6)[nH]4)cc3)cc2)[nH]1)C(C)C [Example 2, methyl [(1S)-2-methyl-1-({(2S)-2-[4-(4′-{2-[(8S)-7-((2S)-3-methyl-2-{[(methyloxy)carbonyl]amino}butanoyl)-1,4-dioxa-7-azaspiro[4.4]non-8-yl]-1H-imidazol-4-yl}-4-biphenylyl)-1H-imidazol-2-yl]-1-pyrrolidinyl}carbonyl)propyl]carbamate] | 39.8 pM | 7.94 pM
[2H]C1([2H])OC2(C[C@@H](c3ncc(-c4ccc(-c5ccc(-c6cnc([C@@H]7CCCN7C(=O)[C@@H](NC(=O)OC)C(C)C)[nH]6)cc5)cc4)[nH]3)N(C(=O)[C@@H](NC(=O)OC)C(C)C)C2)OC1([2H])[2H] [Example 9, methyl [(1S)-2-methyl-1-({(2S)-2-[4-(4′-{2-[(8S)-7-((2S)-3-methyl-2-{[(methyloxy)carbonyl]amino}butanoyl)-1,4-dioxa-7-azaspiro[4.4]non-8-yl]-1H-imidazol-4-yl}-4-biphenylyl)-1H-imidazol-2-yl]-1-pyrrolidinyl}carbonyl)propyl]carbamate-d4] | 31.6 pM | 6.31 pM
COC(=O)N[C@H](C(=O)N1CCC[C@H]1c1ncc(-c2ccc(-c3ccc(-c4c[nH]c(C5CCC6(CCS(=O)(=O)CC6)N5C(=O)[C@@H](NC(=O)OC)C(C)C)n4)cc3)cc2)[nH]1)C(C)C (stereo partly drawn) [Example 37, methyl [(1S)-2-methyl-1-({(2S)-2-[4-(4′-{2-[1-((2S)-3-methyl-2-{[(methyloxy)carbonyl]amino}butanoyl)-8,8-dioxido-8-thia-1-azaspiro[4.5]dec-2-yl]-1H-imidazol-4-yl}-4-biphenylyl)-1H-imidazol-2-yl]-1-pyrrolidinyl}carbonyl)propyl]carbamate] | 12600 pM | 316 pM
COC(=O)N[C@H](C(=O)N1CC2(CCN(C(=O)OC(C)(C)C)CC2)CC1c1ncc(-c2ccc(-c3ccc(-c4cnc([C@@H]5CCCN5C(=O)[C@@H](NC(=O)OC)C(C)C)[nH]4)cc3)cc2)[nH]1)C(C)C (stereo partly drawn) [Example 19, 1,1-dimethylethyl 2-{N-[(methyloxy)carbonyl]-L-valyl}-3-(4-{4′-[2-((2S)-1-{N-[(methyloxy)carbonyl]-L-valyl}-2-pyrrolidinyl)-1H-imidazol-4-yl]-4-biphenylyl}-1H-imidazol-2-yl)-2,8-diazaspiro[4.5]decane-8-carboxylate] | 10000 pM | 39.8 pM
COC(=O)N[C@@H](CC(C)C)C(=O)N1C(c2nc(-c3ccc(-c4ccc(-c5cnc([C@@H]6CCCN6C(=O)[C@@H](NC(=O)OC)C(C)C)[nH]5)cc4)cc3)c[nH]2)CCC12CCC(F)(F)CC2 (stereo partly drawn) [Example 35, methyl [(1S)-1-({8,8-difluoro-2-[4-(4′-{2-[(2S)-1-((2S)-3-methyl-2-{[(methyloxy)carbonyl]amino}butanoyl)-2-pyrrolidinyl]-1H-imidazol-4-yl}-4-biphenylyl)-1H-imidazol-2-yl]-1-azaspiro[4.5]dec-1-yl}carbonyl)-3-methylbutyl]carbamate] | 2000 pM | 12.6 pM
COC(=O)N[C@H](C(=O)N1CCC[C@H]1c1ncc(-c2ccc(-c3ccc(-c4cnc([C@@H]5CC6(CN5C(=O)[C@@H](NC(=O)OC)C(C)C)O[C@@H](C)C[C@H](C)O6)[nH]4)cc3)cc2)[nH]1)C(C)C (stereo partly drawn) [Example 1, methyl [(1S)-1-({(2S)-2-[4-(4′-{2-[(3S,7S,9S)-7,9-dimethyl-2-((2S)-3-methyl-2-{[(methyloxy)carbonyl]amino}butanoyl)-6,10-dioxa-2-azaspiro[4.5]dec-3-yl]-1H-imidazol-4-yl}-4-biphenylyl)-1H-imidazol-2-yl]-1-pyrrolidinyl}carbonyl)-2-methylpropyl]carbamate] | 1580 pM | 10 pM
COC(=O)N[C@H](C(=O)N1CCC[C@H]1c1ncc(-c2ccc(-c3ccc(-c4cnc([C@@H]5CC6(CCC(F)(F)CC6)CN5C(=O)[C@@H](NC(=O)OC)C(C)C)[nH]4)cc3)cc2)[nH]1)C(C)C [Example 17, methyl [(1S)-1-({(2S)-2-[4-(4′-{2-[8,8-difluoro-2-((2S)-3-methyl-2-{[(methyloxy)carbonyl]amino}butanoyl)-2-azaspiro[4.5]dec-3-yl]-1H-imidazol-4-yl}-4-biphenylyl)-1H-imidazol-2-yl]-1-pyrrolidinyl}carbonyl)-2-methylpropyl]carbamate] | 39.8 pM | 2.51 pM
